This assay relates to Cannabis plant. The experiment in a line: Leaf ploidy by flow cytometry after colchicine treatment of haploid Cannabis plants. In kind it is in vivo. The conditions noted are these: for cells counted diploid / cells counted haploid / cells counted tetraploid: mixaploid (n+2n) state. The source says:
In some exemplary embodiments, a colchicine concentration (in water) of 0.25% may be used in addition to 0.5%, 1% and 5%. An issue arises with Cannabis in that not all the cells or tissues of a colchicine treated plant will double their ploidy.
On the multi-cellular level, doubling the ploidy of plants requires colchicine treatment applied to the shoot apical meristem (SAM). The SAM is composed of three distinct cell layers: L1 (outermost layer), L2 (middle layer), and L3 (innermost layer). Within the SAM, stem cell division takes place along the peripheral zone where new leaves emerge (Heidstra, 2014). The L1 gives rise to the epidermis or the protective covering of the leaf and stem, L2 to the sub epidermal photosynthetic mesophyll tissue, and L3 to the vascular tissue including the xylem and phloem. L1 and L2 divide anticlinally or […] to each other and thus remain distinct layers (Meyerowitz, 1997). On occasion, a cell in the SAM can divide periclinally whereby the daughter cell invades and acquires the identity one layer out and brings its ploidy with it. This organizational dynamic creates a stable yet mutable developmental path. In fact, the discovery of the stability of different layers within a meristem was discovered by creating a chimera using colchicine on Datura. The researchers were able to follow the developmental lineage of the differently sized cells due to the different ploidy levels within the SAM (Satina, 1940).
In general terms: Flow cytometry measures light scatter and fluorescence of single cells or particles in a stream.

Setting [1] is: cultivar Cryptic Lineage Legacy, FIG. 4C.
[2] abbreviates: cultivar Herbaceous Sting, FIG. 2C.
Setting [3] is: cultivar Operation Green Harvest Haze, FIG. 3C.
[4] abbreviates: cultivar Standing Liberty, FIG. 1C.

Turning to `COc1cc2c(c(OC)c1OC)-c1ccc(OC)c(=O)cc1[C@@H](NC(C)=O)CC2` [Colchicine], the “ploidy doubling of treated haploid plants” value (colchicine treated haploid Cannabis plants) is “very rarely, if ever, achieve a fully diploid state”. Moreover, the cells counted diploid entry under setting [1] is on record as “approximately 20.65%”, the cells counted diploid result under setting [2] is on record as “approximately 45.82%”, the cells counted diploid result under setting [3] is “approximately 22.8%” and the cells counted diploid result under setting [4] is “approximately 49%”. The cells counted haploid entry was “approximately 17.65%” under setting [1], “approximately 12.15%” under setting [2], “approximately 32.4%” under setting [3] and “approximately 12.48%” under setting [4]. Moreover, the cells counted tetraploid entry is “approximately 2.63%” under setting [1], “approximately 3.93%” under setting [2], “approximately 3.1%” under setting [3] and “approximately 4.39%” under setting [4].

For the origin of these results see US20250064007A1, “Self-Fertilization as Methods for Stabilizing Ploidy after Colchicine Treatment Model” (Rev Genomics, Inc., priority 2023, published 2025).
